Assay [1] has as its target T1, Neuropeptide Y receptor type 1 (Homo sapiens, UniProt P25929).
T1 sequence (P25929 whole entry): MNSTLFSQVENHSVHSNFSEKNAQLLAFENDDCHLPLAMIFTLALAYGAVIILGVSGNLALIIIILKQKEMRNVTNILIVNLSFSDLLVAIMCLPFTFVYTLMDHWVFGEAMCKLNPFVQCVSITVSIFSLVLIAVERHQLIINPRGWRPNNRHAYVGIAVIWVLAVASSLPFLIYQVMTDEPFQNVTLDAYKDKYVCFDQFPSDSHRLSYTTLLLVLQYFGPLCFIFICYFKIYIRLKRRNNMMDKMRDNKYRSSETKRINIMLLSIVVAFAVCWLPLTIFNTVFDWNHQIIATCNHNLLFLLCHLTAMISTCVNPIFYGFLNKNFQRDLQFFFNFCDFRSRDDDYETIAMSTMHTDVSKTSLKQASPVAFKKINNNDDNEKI
The assay is described as follows: Displacement of [125I]-PYY(1 to 36 residues) from human Y1R expressed in BHK-21 cell membranes after 2 hrs by scintillation proximity assay.

Assay [2] has as its target T1, Neuropeptide Y receptor type 1. The assay is described as follows: Activation of human Y1R expressed in HEK293 cells assessed as inhibition of isoproterenol-induced increase in intracellular cAMP levels by calcium 5 dye-based FLIPR assay. In kind it is functional, cell-based. The note with it: for pEC50: hek293; for EC50: read-out: EC50. For orientation: Cyclic AMP is a second messenger, typically raised through Gs and lowered through Gi signalling.

Assay [3] has as its target T2, Neuropeptide Y receptor type 4 (Homo sapiens, UniProt P50391). Kind of assay: Displacement of [125I]-PP from human Y4R expressed in CHO-K1 cell membranes after 2 hrs by scintillation proximity assay.
Assay [4] concerns the target T3, Neuropeptide Y receptor type 5 (Homo sapiens, UniProt Q15761).
T3 sequence (Q15761 whole entry): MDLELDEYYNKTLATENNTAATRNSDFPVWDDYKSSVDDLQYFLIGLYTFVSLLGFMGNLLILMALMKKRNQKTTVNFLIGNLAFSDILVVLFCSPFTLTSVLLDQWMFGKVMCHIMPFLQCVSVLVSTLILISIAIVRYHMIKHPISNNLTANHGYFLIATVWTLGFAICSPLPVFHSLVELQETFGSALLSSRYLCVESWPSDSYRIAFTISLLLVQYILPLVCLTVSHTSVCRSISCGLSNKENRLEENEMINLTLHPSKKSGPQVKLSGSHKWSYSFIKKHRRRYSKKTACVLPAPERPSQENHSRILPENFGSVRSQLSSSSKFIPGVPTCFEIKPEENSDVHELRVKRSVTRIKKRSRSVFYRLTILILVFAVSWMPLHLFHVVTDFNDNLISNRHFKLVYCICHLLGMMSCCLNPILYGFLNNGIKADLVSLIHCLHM
Kind of assay: Displacement of [125I]-PYY(1 to 36 residues) from human Y5R expressed in HEK293 cell membranes after 2 hrs by scintillation proximity assay. Background: Loss of bound radioactivity is the signal in a displacement assay; it reports binding, not function.

Assay [5] is filed under the species Homo sapiens. The assay is described as follows: Selectivity ratio of Ki for human Y1R expressed in BHK-21 cell membranes to Ki for human Y2R expressed in CHO cell membranes. The format is cell-based.
Assay [6] addresses T3, Neuropeptide Y receptor type 5. The assay is described as follows: Activation of human Y5R expressed in HEK293 cells assessed as inhibition of isoproterenol-induced increase in intracellular cAMP levels by calcium 5 dye-based FLIPR assay. In kind it is functional, cell-based.
Assay [7] deals with T4, Neuropeptide Y receptor type 2 (Homo sapiens, UniProt P49146).
T4 sequence (P49146 whole entry): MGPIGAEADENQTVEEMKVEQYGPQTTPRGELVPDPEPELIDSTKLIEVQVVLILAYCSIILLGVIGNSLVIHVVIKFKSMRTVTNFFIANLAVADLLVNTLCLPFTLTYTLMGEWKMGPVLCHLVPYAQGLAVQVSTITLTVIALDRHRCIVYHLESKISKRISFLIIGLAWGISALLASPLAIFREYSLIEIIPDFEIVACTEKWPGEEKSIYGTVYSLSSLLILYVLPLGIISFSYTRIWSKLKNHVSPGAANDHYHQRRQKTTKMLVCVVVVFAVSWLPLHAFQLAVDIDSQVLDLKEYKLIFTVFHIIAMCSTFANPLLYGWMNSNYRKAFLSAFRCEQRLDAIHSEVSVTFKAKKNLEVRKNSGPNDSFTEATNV
Kind of assay: Displacement of [125I]-PYY(1 to 36 residues) from human Y2R expressed in CHO cell membranes after 2 hrs by scintillation proximity assay.

In assay [8] the target is T4, Neuropeptide Y receptor type 2. Kind of assay: Activation of human Y2R expressed in HEK293 cells assessed as inhibition of isoproterenol-induced increase in intracellular cAMP levels by calcium 5 dye-based FLIPR assay. In kind it is functional, cell-based. The settings on record: read-out: EC50.
The species named for assay [9] is Homo sapiens. Kind of assay: Selectivity ratio of Ki for human Y5R expressed in HEK293 cell membranes to Ki for human Y2R expressed in CHO cell membranes. In kind it is cell-based.
For assay [10], the species on record is Homo sapiens. Kind of assay: Selectivity ratio of Ki for human Y4R expressed in CHO-K1 cell membranes to Ki for human Y2R expressed in CHO cell membranes. In kind it is cell-based.
The target in assay [11] is T2, Neuropeptide Y receptor type 4. Kind of assay: Activation of human Y4R expressed in HEK293 cells assessed as inhibition of isoproterenol-induced increase in intracellular cAMP levels by calcium 5 dye-based FLIPR assay. The format is functional, cell-based. The settings on record: for pEC50: hek293.

One may read the Ki as a dissociation constant, usually derived from enzyme kinetics or from competition with a known ligand. Higher therefore signals weaker binding. Usually pEC50 stands for −log10 of the EC50, conventionally taken in molar units. What is called EC50 is the concentration needed to bring the measured effect to its halfway point. One may read the pKi as −log10 of the Ki, conventionally taken in molar units. Low readings indicate a high Ki, high ones a low Ki.

The structures appear in SMILES notation. Bridge positions count the residues as written; N and C are the ends. Square brackets hold non-standard residues; d marks the D form. Peptide text beside a SMILES is read from it. Ahx = NCCCCCC(=O)O Bounds are passed on as bounds.

T2 sequence (P50391 whole entry): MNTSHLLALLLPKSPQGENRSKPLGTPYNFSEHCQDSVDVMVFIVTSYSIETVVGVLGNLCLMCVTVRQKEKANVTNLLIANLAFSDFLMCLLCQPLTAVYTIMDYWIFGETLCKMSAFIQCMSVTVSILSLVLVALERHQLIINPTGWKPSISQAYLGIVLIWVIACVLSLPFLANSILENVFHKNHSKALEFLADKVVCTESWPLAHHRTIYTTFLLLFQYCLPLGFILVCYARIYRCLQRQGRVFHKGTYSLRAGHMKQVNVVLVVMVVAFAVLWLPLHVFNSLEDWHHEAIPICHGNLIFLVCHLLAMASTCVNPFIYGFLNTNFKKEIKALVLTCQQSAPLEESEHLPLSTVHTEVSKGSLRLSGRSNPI

On to `CC[C@H](C)[C@@H]1NC(=O)[C@H](Cc2ccc(O)cc2)NC(=O)[C@H](Cc2cnc[nH]2)NC(=O)[C@H](CCCNC(=N)N)NC(=O)CCCCCNC(=O)[C@H](CCCCN)NC(=O)[C@H](CO)NC(=O)[C@@H](NC(=O)[C@@H](N)Cc2ccc(O)cc2)CCC(=O)NCCCC[C@@H](C(=O)N[C@H](C(=O)N[C@H](C(=O)N[C@@H](CCCNC(=N)N)C(=O)N[C@@H](CCC(N)=O)C(=O)N[C@@H](CCCNC(=N)N)C(=O)N[C@@H](Cc2ccc(O)cc2)C(=O)O)[C@@H](C)O)[C@@H](C)CC)NC(=O)[C@H](CC(N)=O)NC1=O` (H-YESK[Ahx]RHYINKITRQRY-OH; lactam 2-11), for which the Ki in [1] turned out to be 500 nM; in assay [3], 25 nM; in [4] it was 630 nM; in assay [7], 2 nM. Also, the pEC50 in assay [2] and in assay [11] was < 6 throughout. The EC50 in [2] was > 1000 nM; in assay [6], 500 nM; in assay [8] it was 7.6 nM; in assay [11] it was > 1000 nM. Further, the Ratio Ki in the assay listed under Homo sapiens [5] was determined as 250; in the assay listed under Homo sapiens [9], 320; in the assay filed under Homo sapiens [10] it was 13.

As for `CC[C@H](C)[C@H](NC(=O)[C@H](Cc1ccc(O)cc1)NC(=O)[C@H](CCCNC(=N)N)NC(=O)[C@H](CCCNC(=N)N)NC(=O)[C@H](CC(C)C)NC(=O)[C@H](CC(=O)O)NC(=O)[C@H](C)NC(=O)[C@H](C)NC(=O)[C@H](Cc1ccc(O)cc1)NC(=O)[C@H](CCC(N)=O)NC(=O)[C@H](C)NC(=O)[C@H](CCSC)NC(=O)[C@H](CCC(N)=O)NC(=O)[C@H](CCC(=O)O)NC(=O)[C@@H]1CCCN1C(=O)[C@@H](NC(=O)[C@H](C)NC(=O)[C@H](CC(N)=O)NC(=O)[C@H](CC(=O)O)NC(=O)CNC(=O)[C@@H]1CCCN1C(=O)[C@H](Cc1ccc(O)cc1)NC(=O)[C@@H](NC(=O)[C@@H]1CCCN1C(=O)[C@H](CCC(=O)O)NC(=O)[C@H](CC(C)C)NC(=O)[C@@H]1CCCN1C(=O)[C@H](C)N)C(C)C)[C@@H](C)O)C(=O)N[C@@H](CC(N)=O)C(=O)N[C@@H](CCSC)C(=O)N[C@@H](CC(C)C)C(=O)N[C@H](C(=O)N[C@@H](CCCNC(=N)N)C(=O)N[C@@H](CCC(N)=O)C(=O)N[C@@H](CCCNC(=N)N)C(=O)N[C@@H](Cc1ccc(O)cc1)C(=O)O)[C@@H](C)O`, the Ki is 40 nM in [1], 0.1 nM in assay [3], 1.3 nM in assay [4] and 6.3 nM in [7]. The EC50 in assay [2] is 16 nM; in assay [6], 6.3 nM; in [8] it was 16 nM; in [11], 0.2 nM. The Ratio Ki in the assay listed under Homo sapiens [5] was determined as 6.3; in the assay listed under Homo sapiens [9], 0.21; in the assay listed under Homo sapiens [10], 0.02.

For `CC[C@H](C)[C@@H]1NC(=O)[C@H](CC(C)C)NC(=O)[C@H](CC(N)=O)NC(=O)[C@@H](NC(=O)[C@H](Cc2ccc(O)cc2)NC(=O)[C@H](Cc2cnc[nH]2)NC(=O)[C@H](CCCNC(=N)N)NC(C)=O)CCC(=O)NCCCC[C@@H](C(=O)N[C@@H](CCCNC(=N)N)C(=O)N[C@@H](CCC(N)=O)C(=O)N[C@@H](CCCNC(=N)N)C(=O)N[C@@H](Cc2ccc(O)cc2)C(=O)O)NC1=O` (Ac-RHYENLIKRQRY-OH; lactam 4-8), the Ki in assay [1] is > 10000 nM; in assay [3] it was 1600 nM; in assay [4], 5000 nM; in [7], 79 nM. Besides, the pKi in assay [1] (bhk-21) is on record as < 5. In addition, the Ratio Ki is > 130 in the assay filed under Homo sapiens [5], 63 in the assay listed under Homo sapiens [9] and 20 in the assay listed under Homo sapiens [10].

Turning to `CC[C@H](C)[C@H](NC(=O)[C@H](Cc1ccc(O)cc1)NC(=O)[C@H](Cc1c[nH]cn1)NC(=O)[C@H](CCCN=C(N)N)NC(=O)CCCCCNC(=O)[C@H](CCCCN)NC(=O)[C@H](CO)NC(=O)[C@@H]1CCCN1C(=O)[C@@H](N)Cc1ccc(O)cc1)C(=O)N[C@@H](CC(N)=O)C(=O)N[C@@H](CC(C)C)C(=O)N[C@H](C(=O)N[C@H](C(=O)N[C@@H](CCCN=C(N)N)C(=O)N[C@@H](CCC(N)=O)C(=O)N[C@@H](CCCN=C(N)N)C(=O)N[C@@H](Cc1ccc(O)cc1)C(=O)O)[C@@H](C)O)[C@@H](C)CC` (H-YPSK[Ahx]RHYINLITRQRY-OH), the Ratio Ki came to 31 in the assay filed under Homo sapiens [5], 100 in the assay filed under Homo sapiens [9] and 15 in the assay listed under Homo sapiens [10].

Take `CC[C@H](C)[C@H](NC(=O)[C@H](Cc1ccc(O)cc1)NC(=O)[C@H](Cc1cnc[nH]1)NC(=O)[C@H](CCCNC(=N)N)NC(=O)CCCCCNC(=O)[C@H](CCCCN)NC(=O)[C@H](CO)NC(=O)[C@@H]1CCCN1C(=O)[C@@H](N)Cc1ccc(O)cc1)C(=O)N[C@@H](CC(N)=O)C(=O)N[C@@H](CC(C)C)C(=O)N[C@H](C(=O)N[C@H](C(=O)N[C@@H](CCCNC(=N)N)C(=O)N[C@@H](CCC(N)=O)C(=O)N[C@@H](CCCNC(=N)N)C(=O)N[C@@H](Cc1ccc(O)cc1)C(=O)O)[C@@H](C)O)[C@@H](C)CC` (H-YPSK[Ahx]RHYINLITRQRY-OH): the Ki was determined as 400 nM in assay [1], 200 nM in [3], 1300 nM in assay [4] and 13 nM in [7].

As for `CC[C@H](C)[C@@H]1NC(=O)[C@@H](NC(=O)[C@@H](N)Cc2ccc(O)cc2)CCC(=O)NCCCC[C@@H](C(=O)N[C@H](C(=O)N[C@H](C(=O)N[C@@H](CCCNC(=N)N)C(=O)N[C@@H](CCC(N)=O)C(=O)N[C@@H](CCCNC(=N)N)C(=O)N[C@@H](Cc2ccc(O)cc2)C(=O)O)[C@@H](C)O)C(C)C)NC(=O)[C@H](CC(N)=O)NC(=O)[C@H](CC(C)C)NC(=O)[C@H](Cc2ccc(O)cc2)NC(=O)[C@H](Cc2cnc[nH]2)NC(=O)[C@H](CCCNC(=N)N)NC(=O)CCCCCNC(=O)[C@H](CCCCN)NC1=O`, the Ki in assay [1] was 1300 nM; in [3], 50 nM; in assay [4], 790 nM; in assay [7] it was 1.3 nM. Besides, the pEC50 in assay [2] and in assay [11] was < 6 each time. Also, the EC50 in [2] was > 1000 nM; in assay [6], 400 nM; in assay [8], 2 nM; in assay [11] it was > 1000 nM. The Ratio Ki in the assay filed under Homo sapiens [5] is 1000; in the assay filed under Homo sapiens [9], 610; in the assay filed under Homo sapiens [10] it was 39.

Source of the values: ChEMBL document CHEMBL4261636, “Design of Y2 Receptor Selective and Proteolytically Stable PYY3-36 Analogues” (J Med Chem, 2018).
